The subject of data set [1] is HBV replication in HepAD38 cells. Kind of data set: Anti-HBV activity in HepAD38 cells, extracellular HBV DNA by QPCR. It is filed as cell-based, HBV (genotype D, serotype ayw). The conditions noted are these: Hepatitis B virus, HePAD38, 168 h, read-out: Anti-HBV EC50, HepAD38 cells, extracellular HBV DNA by QPCR, 7 days of incubation. The method in brief: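 HepAD38 cells (HepG2 with tet-repressible HBV genotype D genome) seeded overnight, tetracycline removed, then treated 7 days with compounds (half-log dilutions, 30 μM–10 nM; 1:200 from DMSO). Supernatant HBV DNA quantified by QPCR against standard curve; % inhibition vs vehicle, EC50 by 4-parameter fit.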

Data set [2] can be described thus: In vitro cytotoxicity, MTT cell viability assay in HepG2 cells. It is filed as cell-based. Particulars: human, Cytotoxicity CC50. The method in brief: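 HepG2 cells incubated 7 days at 37 °C, 5% CO2 with compounds from 30 μM to 1.0 nM (8 half-log dilutions). Viability read as MTT formazan absorbance at 492 nm, normalised to vehicle controls; CC50 from 4-parameter non-linear regression.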
A general note: Tetrazolium assays rely on reduction of a dye to a coloured formazan, in cell work by metabolically active cells.

Drawing on patent publication US11247965B2 (VenatoRx Pharmaceuticals, Inc., priority 2017, dated 2022), this text covers EC50 and CC50 for 25 molecules.

Where only a bound is given, the exact number is not on record here.

The EC50 is the concentration at which the effect is half-maximal. Broadly, the CC50 is the concentration giving 50% cytotoxicity.

With `O=C(Nc1ccc(F)c(F)c1)c1ccc(F)c(C(F)(F)C(=O)N2[C@@H]3CC[C@H]2C[C@H](O)C3)c1` [Example 199, 3-(1,1-difluoro-2-((1R,3s,5S)-3-hydroxy-8-azabicyclo[3.2.1]octan-8-yl)-2-oxoethyl)-N-(3,4-difluorophenyl)-4-fluorobenzamide], the concentration giving a half-maximal response (EC50) in data set [1] is under 5 µM. Moreover, in data set [2], the CC50 at 7 days lay in the range of 5 to 30 µM.
Regarding `O=C(Nc1ccc(F)c(F)c1)c1ccc(F)c(C(F)(F)C(=O)N2CCCCC(O)C2)c1` (centres unmarked) [Example 25, 3-(1,1-difluoro-2-(3-hydroxyazepan-1-yl)-2-oxoethyl)-N-(3,4-difluorophenyl)-4-fluorobenzamide], in data set [1], the 50% effective concentration (EC50) was under 5 µM. This molecule also yielded a CC50 at 7 days in data set [2] of 5 to 30 µM.
As for `Cc1cc(NC(=O)c2ccc(F)c(C(F)(F)C(=O)N3CCc4cn[nH]c4C3)c2)ccc1F` [Example 76, 3-(1,1-difluoro-2-oxo-2-(1,4,5,7-tetrahydro-6H-pyrazolo[3,4-c]pyridin-6-yl)ethyl)-4-fluoro-N-(4-fluoro-3-methylphenyl)benzamide], the EC50 in data set [1] is under 5 µM. Also, the CC50 at 7 days in data set [2] fell in the range of 5 to 30 µM.
With `Cc1cc(NC(=O)c2ccc(F)c(C(F)(F)C(=O)N3CCC(NC(=O)OC(C)(C)C)CC3)c2)ccc1F` [Example 229, tert-butyl (1-(2,2-difluoro-2-(2-fluoro-5-((4-fluoro-3-methylphenyl)carbamoyl)phenyl)acetyl)piperidin-4-yl)carbamate], in data set [1], the EC50 was under 5 µM. This molecule also showed a CC50 at 7 days in data set [2] of 5 to 30 µM.
For `Cc1cc(NC(=O)c2ccc(F)c(C(F)(F)C(=O)N3[C@@H]4CC[C@H]3CC(O)(CC#N)C4)c2)ccc1F` (stereo partly drawn) [Example 240, 3-(2-((1R,5S)-3-(cyanomethyl)-3-hydroxy-8-azabicyclo[3.2.1]octan-8-yl)-1,1-difluoro-2-oxoethyl)-4-fluoro-N-(4-fluoro-3-methylphenyl)benzamide], in data set [1], the EC50 is under 5 µM. The molecule also yielded a 50% cytotoxic concentration (CC50) at 7 days in data set [2] of under 5 µM.
As for `Cc1cc(NC(=O)c2cc(C(F)(F)C(=O)N3CCC(O)CC3)ccc2F)ccc1F` [Example 90, 5-(1,1-difluoro-2-(4-hydroxypiperidin-1-yl)-2-oxoethyl)-2-fluoro-N-(4-fluoro-3-methylphenyl)benzamide], in data set [1], the concentration for a half-maximal effect (EC50) was under 5 µM. The molecule also yielded a CC50 at 7 days in data set [2] of 5 to 30 µM.
On to `CCN(CCO)C(=O)C(F)(F)c1cc(C(=O)Nc2ccc(F)c(F)c2)ccc1F` [Example 55, N-(3,4-difluorophenyl)-3-(2-(ethyl(2-hydroxyethyl)amino)-1,1-difluoro-2-oxoethyl)-4-fluorobenzamide], for which the EC50 in data set [1] lay within 5 to 30 µM. Also, in data set [2], the CC50 at 7 days was over 30 µM.
The matching figures for `Cc1cc(NC(=O)c2ccn(C)c2C(F)(F)C(=O)NC(C)(C)CO)ccc1F` [Example 105, 2-(1,1-difluoro-2-((1-hydroxy-2-methylpropan-2-yl)amino)-2-oxoethyl)-N-(4-fluoro-3-methylphenyl)-1-methyl-1H-pyrrole-3-carboxamide]: 5 to 30 µM and over 30 µM.
Take `Cc1cc(NC(=O)c2ccc(Cl)c(C(F)(F)C(=O)N3CC[C@@H](O)[C@@H](O)C3)c2)ccc1F` [Example 57, 4-chloro-3-(2-((3S,4R)-3,4-dihydroxypiperidin-1-yl)-1,1-difluoro-2-oxoethyl)-N-(4-fluoro-3-methylphenyl)benzamide]: the concentration for a half-maximal effect (EC50) in data set [1] is under 5 µM. In addition, the half-maximal cytotoxic concentration (CC50) at 7 days in data set [2] was over 30 µM.
In the case of `CC(=O)NC1CCN(C(=O)C(F)(F)c2cc(C(=O)Nc3ccc(F)c(C)c3)ccc2N)CC1(C)C` (centres unmarked) [Example 311, 3-(2-(4-acetamido-3,3-dimethylpiperidin-1-yl)-1,1-difluoro-2-oxoethyl)-4-amino-N-(4-fluoro-3-methylphenyl)benzamide], the EC50 in data set [1] was under 5 µM. In data set [2], the half-maximal cytotoxic concentration (CC50) at 7 days was over 30 µM.
The matching figures for `Cc1cc(NC(=O)c2ccc(F)c(C(F)(F)C(=O)N3C4CC[C@@H]3C[C@H](O)C4)c2)cc(F)c1F` [Example 249, 3-(1,1-difluoro-2-((1R,3r,5S)-3-hydroxy-8-azabicyclo[3.2.1]octan-8-yl)-2-oxoethyl)-N-(3,4-difluoro-5-methylphenyl)-4-fluorobenzamide]: under 5 µM and 5 to 30 µM.
Turning to `N#Cc1cc(NC(=O)c2ccc(F)c(C(F)(F)C(=O)N3[C@@H]4CC[C@H]3C[C@H](O)C4)c2)ccc1F` [Example 193, N-(3-cyano-4-fluorophenyl)-3-(1,1-difluoro-2-((1R,3s,5S)-3-hydroxy-8-azabicyclo[3.2.1]octan-8-yl)-2-oxoethyl)-4-fluorobenzamide], the EC50 in data set [1] is under 5 µM. The molecule further gave a CC50 at 7 days in data set [2] of 5 to 30 µM.
For the molecule `Cc1cc(NC(=O)c2ccnc(C(F)(F)C(=O)N3C4CC[C@@H]3C[C@@H](C(=O)O)C4)c2)ccc1F` [Example 244, (1R,3s,5S)-8-(2,2-difluoro-2-(4-((4-fluoro-3-methylphenyl)carbamoyl)pyridin-2-yl)acetyl)-8-azabicyclo[3.2.1]octane-3-carboxylic acid], in data set [1], the EC50 was in the range of 5 to 30 µM. The same molecule came in with a 50% cytotoxic concentration (CC50) at 7 days in data set [2] of 5 to 30 µM.
As for `CC(C)n1cc(NC(=O)c2ccc(F)c(C(F)(F)C(=O)N3CCC(O)CC3)c2)cn1` [Example 80, 3-(1,1-difluoro-2-(4-hydroxypiperidin-1-yl)-2-oxoethyl)-4-fluoro-N-(1-isopropyl-1H-pyrazol-4-yl)benzamide], the 50% effective concentration (EC50) in data set [1] was over 30 µM. For the same molecule, the CC50 at 7 days in data set [2] was over 30 µM.
In the case of `O=C(Nc1ccc(F)c(F)c1)c1ccc(F)c(C(F)(F)C(=O)N2CC[C@H](O)C2)c1` [Example 12, (S)-3-(1,1-difluoro-2-(3-hydroxypyrrolidin-1-yl)-2-oxoethyl)-N-(3,4-difluorophenyl)-4-fluorobenzamide], the EC50 in data set [1] fell in the range of 5 to 30 µM. Moreover, the CC50 at 7 days in data set [2] fell in the range of 5 to 30 µM.
Turning to `Cc1cc(NC(=O)c2cc(C(F)(F)C(=O)N[C@H]3CC[C@@H](O)CC3)n(C)c2)ccc1F` [Example 125, 5-(1,1-difluoro-2-(((1s,4s)-4-hydroxycyclohexyl)amino)-2-oxoethyl)-N-(4-fluoro-3-methylphenyl)-1-methyl-1H-pyrrole-3-carboxamide], the EC50 in data set [1] is under 5 µM. In addition, the 50% cytotoxic concentration (CC50) at 7 days in data set [2] is over 30 µM.
For the molecule `O=C(Nc1ccc(Cl)cc1F)c1ccc(Cl)c(C(F)(F)C(=O)N2CCC(O)CC2)c1` [Example 37, 4-chloro-N-(4-chloro-2-fluorophenyl)-3-(1,1-difluoro-2-(4-hydroxypiperidin-1-yl)-2-oxoethyl)benzamide], the half-maximal effective concentration (EC50) in data set [1] was over 30 µM. In addition, the cytotoxic concentration (CC50) at 7 days in data set [2] is over 30 µM.
As to `Cc1cc(NC(=O)c2ccc(F)c(C(F)(F)C(=O)N3CCC(O)(C(N)=O)CC3)c2)ccc1F` [Example 212, 1-(2,2-difluoro-2-(2-fluoro-5-((4-fluoro-3-methylphenyl)carbamoyl)phenyl)acetyl)-4-hydroxypiperidine-4-carboxamide], in data set [1], the concentration giving a half-maximal response (EC50) was under 5 µM. The half-maximal cytotoxic concentration (CC50) at 7 days in data set [2] was in the range of 5 to 30 µM.
Take `Cc1cc(NC(=O)c2ccc(F)c(C(F)(F)C(=O)N3CCc4[nH]c(=O)oc4C3)c2)ccc1F` [Example 289, 3-(1,1-difluoro-2-oxo-2-(2-oxo-1,4,6,7-tetrahydrooxazolo[5,4-c]pyridin-5(2H)-yl)ethyl)-4-fluoro-N-(4-fluoro-3-methylphenyl)benzamide]: the 50% effective concentration (EC50) in data set [1] is under 5 µM. In addition, the CC50 at 7 days in data set [2] lay within 5 to 30 µM.
As for `CNCC(=O)NC1CCN(C(=O)C(F)(F)c2nc(C(=O)Nc3ccc(F)c(C)c3)ccc2F)CC1(C)C` (centres unmarked) [Example 302, 6-(2-(3,3-dimethyl-4-(2-(methylamino)acetamido)piperidin-1-yl)-1,1-difluoro-2-oxoethyl)-5-fluoro-N-(4-fluoro-3-methylphenyl)picolinamide], the half-maximal effective concentration (EC50) in data set [1] was under 5 µM. In data set [2], this molecule displayed a half-maximal cytotoxic concentration (CC50) at 7 days of 5 to 30 µM.
On to `Cc1cc(NC(=O)c2ccc(F)c(C(F)(F)C(=O)N3[C@@H]4COC[C@H]3CN(C(=O)OC(C)(C)C)C4)c2)ccc1F` [Example 209, tert-butyl (1R,5S)-9-(2,2-difluoro-2-(2-fluoro-5-((4-fluoro-3-methylphenyl)carbamoyl)phenyl)acetyl)-3-oxa-7,9-diazabicyclo[3.3.1]nonane-7-carboxylate], for which the EC50 in data set [1] is under 5 µM. The half-maximal cytotoxic concentration (CC50) at 7 days in data set [2] is 5 to 30 µM.
The matching figures for `Cc1cc(NC(=O)c2ccc(F)c(C(F)(F)C(=O)N[C@H]3CC[C@H](O)CC3)c2)ccc1F` [Example 79, 3-(1,1-difluoro-2-(((1r,4r)-4-hydroxycyclohexyl)amino)-2-oxoethyl)-4-fluoro-N-(4-fluoro-3-methylphenyl)benzamide]: 5 to 30 µM and over 30 µM.
For the molecule `Cc1cc(NC(=O)c2ccc(F)c(C(F)(F)C(=O)N3CCn4c(nnc4C(F)(F)F)C3)c2)ccc1F` [Example 341, 3-(1,1-difluoro-2-oxo-2-(3-(trifluoromethyl)-5,6-dihydro-[1,2,4]triazolo[4,3-a]pyrazin-7(8H)-yl)ethyl)-4-fluoro-N-(4-fluoro-3-methylphenyl)benzamide], in data set [1], the 50% effective concentration (EC50) fell in the range of 5 to 30 µM. Further, the CC50 at 7 days in data set [2] was in the range of 5 to 30 µM.
Turning to `Cc1cc(NC(=O)c2ccc(F)c(C(F)(F)C(=O)N3CCC(B(O)O)CC3)c2)ccc1F` [Example 152, (1-(2,2-difluoro-2-(2-fluoro-5-((4-fluoro-3-methylphenyl)carbamoyl)phenyl)acetyl)piperidin-4-yl)boronic acid], the EC50 in data set [1] is under 5 µM. For the same molecule, in data set [2], the half-maximal cytotoxic concentration (CC50) at 7 days lay within 5 to 30 µM.
The matching figures for `Cc1cc(NC(=O)c2ccc(Cl)c(C(F)(F)C(=O)N3CC=CCC3)c2)ccc1F` [Example 74, 4-chloro-3-(2-(3,6-dihydropyridin-1(2H)-yl)-1,1-difluoro-2-oxoethyl)-N-(4-fluoro-3-methylphenyl)benzamide]: under 5 µM and 5 to 30 µM.
